Assay results: ChEMBL document CHEMBL3885881, “DrugMatrix”

Columns and labels:
Rattus norvegicus [1] = organism: Rattus norvegicus; type: toxicity, organism-based, Sprague-Dawley; settings: in vivo, po, 24 h, route oral GAVAGE, time 1 day, vehicle 100 % WATER
Description: DrugMatrix - Regimen: Single

Rattus norvegicus [2] = organism: Rattus norvegicus; assay: DrugMatrix - Regimen: Daily Repeat; type: toxicity, organism-based, Sprague-Dawley; parameters: regimen Daily Repeat, gender Male, age 6-8 weeks; settings: in vivo, po, […], route oral GAVAGE, time 14 day, vehicle 100 % WATER
[3] = 0 mg/kg, vehicle control, tissue Blood, dose level Control
[4] = 0 mg/kg, vehicle control, tissue Plasma, dose level Control
[5] = […], tissue Blood, dose 2.5 mg/Kg, dose level High
[6] = […], tissue Plasma, dose 2.5 mg/Kg, dose level High
[7] = 0 mg/kg, tissue Blood, dose level Control
[8] = 0 mg/kg, tissue Plasma, dose level Control
[9] = tissue Blood, dose 2.5 mg/Kg, dose level High
[10] = tissue Plasma, dose 2.5 mg/Kg, dose level High

**Q.** Which results are given for MERCURIC CHLORIDE?
**A.** ABSOLUTE EOSINOPHIL (Rattus norvegicus [1]; [3]): 91.83 CELLS/uL; ABSOLUTE LYMPHOCYTE (Rattus norvegicus [1]; [3]): 13862.33 CELLS/uL; ABSOLUTE MONOCYTE (Rattus norvegicus [1]; [3]): 437.83 CELLS/uL; ABSOLUTE SEGMENTED NEUTROPHIL (Rattus norvegicus [1]; [3]): 1358 CELLS/uL; BASOPHIL (Rattus norvegicus [1]; [3]): 0%; EOSINOPHIL (Rattus norvegicus [1]; [3]): 0.5%; ERYTHROCYTE COUNT (Rattus norvegicus [1]; [3]): 5.12 x10E6/uL; HEMATOCRIT (Rattus norvegicus [1]; [3]): 31.77%; HEMOGLOBIN (Rattus norvegicus [1]; [3]): 11.8 G/DL; LEUKOCYTE COUNT (Rattus norvegicus [1]; [3]): 15.75 x10E3/uL; MEAN CORPUSCULAR HEMOGLOBIN (Rattus norvegicus [1]; [3]): 23.07 pg; MEAN CORPUSCULAR HEMOGLOBIN CONCENTRATION (Rattus norvegicus [1]; [3]): 37.17 G/DL; MONOCYTE (Rattus norvegicus [1]; [3]): 2.67%; NEUTROPHIL (Rattus norvegicus [1]; [3]): 8.5%; NUCLEATED RED BLOOD CELLS (Rattus norvegicus [1]; [3]): 0 /100WBC; PLATELET COUNT (Rattus norvegicus [1]; [3]): 1113.83 x10E3/uL; ALANINE AMINOTRANSFERASE (Rattus norvegicus [1]; [4]): 45.5 u/L; ALKALINE PHOSPHATASE (Rattus norvegicus [1]; [4]): 343.83 u/L; ASPARTATE AMINOTRANSFERASE (Rattus norvegicus [1]; [4]): 70.67 u/L; BLOOD UREA NITROGEN (Rattus norvegicus [1]; [4]): 13 mg/dL; CARBON DIOXIDE (Rattus norvegicus [1]; [4]): 33 mmol/L; CHLORIDE (Rattus norvegicus [1]; [4]): 100.33 MEQ/L; CHOLESTEROL (Rattus norvegicus [1]; [4]): 76.67 mg/dL; CREATININE (Rattus norvegicus [1]; [4]): 0.12 mg/dL; LACTATE DEHYDROGENASE (Rattus norvegicus [1]; [4]): 116.67 u/L; LIPASE (Rattus norvegicus [1]; [4]): 8 u/L; POTASSIUM (Rattus norvegicus [1]; [4]): 6.33 MEQ/L; TOTAL BILIRUBIN (Rattus norvegicus [1]; [4]): 0.18 mg/dL; TOTAL PROTEIN (Rattus norvegicus [1]; [4]): 5.77 G/DL; ABSOLUTE EOSINOPHIL (Rattus norvegicus [1]; [5]): 210.67 CELLS/uL; ABSOLUTE LYMPHOCYTE (Rattus norvegicus [1]; [5]): 10744.33 CELLS/uL; ABSOLUTE MONOCYTE (Rattus norvegicus [1]; [5]): 466.33 CELLS/uL; ABSOLUTE SEGMENTED NEUTROPHIL (Rattus norvegicus [1]; [5]): 1512 CELLS/uL; BASOPHIL (Rattus norvegicus [1]; [5]): 0%; ERYTHROCYTE COUNT (Rattus norvegicus [1]; [5]): 5.65 x10E6/uL; HEMATOCRIT (Rattus norvegicus [1]; [5]): 34.1%; HEMOGLOBIN (Rattus norvegicus [1]; [5]): 12.63 G/DL; LEUKOCYTE COUNT (Rattus norvegicus [1]; [5]): 12.93 x10E3/uL; LYMPHOCYTE (Rattus norvegicus [1]; [5]): 84.67%; MEAN CORPUSCULAR HEMOGLOBIN (Rattus norvegicus [1]; [5]): 22.43 pg; MEAN CORPUSCULAR HEMOGLOBIN CONCENTRATION (Rattus norvegicus [1]; [5]): 37.1 G/DL; MEAN CORPUSCULAR VOLUME (Rattus norvegicus [1]; [5]): 60.37 fL; MONOCYTE (Rattus norvegicus [1]; [5]): 3.33%; NEUTROPHIL (Rattus norvegicus [1]; [5]): 10.67%; NUCLEATED RED BLOOD CELLS (Rattus norvegicus [1]; [5]): 0 /100WBC; PLATELET COUNT (Rattus norvegicus [1]; [5]): 1117 x10E3/uL; ALANINE AMINOTRANSFERASE (Rattus norvegicus [1]; [6]): 52.67 u/L; ALBUMIN (Rattus norvegicus [1]; [6]): 4.3 G/DL; ALKALINE PHOSPHATASE (Rattus norvegicus [1]; [6]): 366 u/L; ASPARTATE AMINOTRANSFERASE (Rattus norvegicus [1]; [6]): 77.67 u/L; BLOOD UREA NITROGEN (Rattus norvegicus [1]; [6]): 13 mg/dL; CARBON DIOXIDE (Rattus norvegicus [1]; [6]): 26 mmol/L; CHOLESTEROL (Rattus norvegicus [1]; [6]): 82.67 mg/dL; CREATININE (Rattus norvegicus [1]; [6]): 0.16 mg/dL; LACTATE DEHYDROGENASE (Rattus norvegicus [1]; [6]): 175 u/L; LIPASE (Rattus norvegicus [1]; [6]): 8 u/L; PHOSPHORUS (Rattus norvegicus [1]; [6]): 12.07 mg/dL; POTASSIUM (Rattus norvegicus [1]; [6]): 6.17 MEQ/L; TOTAL BILIRUBIN (Rattus norvegicus [1]; [6]): 0.17 mg/dL; TOTAL PROTEIN (Rattus norvegicus [1]; [6]): 6.23 G/DL; URIC ACID (Rattus norvegicus [1]; [6]): 1.7 mg/dL; ABSOLUTE BASOPHIL (Rattus norvegicus [2]; [7]): 0 CELLS/uL; ABSOLUTE EOSINOPHIL (Rattus norvegicus [2]; [7]): 117.17 CELLS/uL; ABSOLUTE MONOCYTE (Rattus norvegicus [2]; [7]): 419 CELLS/uL; ABSOLUTE SEGMENTED NEUTROPHIL (Rattus norvegicus [2]; [7]): 2139.67 CELLS/uL; BASOPHIL (Rattus norvegicus [2]; [7]): 0%; EOSINOPHIL (Rattus norvegicus [2]; [7]): 0.67%; ERYTHROCYTE COUNT (Rattus norvegicus [2]; [7]): 6.61 x10E6/uL; HEMATOCRIT (Rattus norvegicus [2]; [7]): 37.58%; HEMOGLOBIN (Rattus norvegicus [2]; [7]): 13.8 G/DL; LEUKOCYTE COUNT (Rattus norvegicus [2]; [7]): 15.45 x10E3/uL; LYMPHOCYTE (Rattus norvegicus [2]; [7]): 83%; MEAN CORPUSCULAR HEMOGLOBIN (Rattus norvegicus [2]; [7]): 20.87 pg; MEAN CORPUSCULAR HEMOGLOBIN CONCENTRATION (Rattus norvegicus [2]; [7]): 36.72 G/DL; MEAN CORPUSCULAR VOLUME (Rattus norvegicus [2]; [7]): 56.85 fL; MONOCYTE (Rattus norvegicus [2]; [7]): 2.67%; NEUTROPHIL (Rattus norvegicus [2]; [7]): 13.67%; NUCLEATED RED BLOOD CELLS (Rattus norvegicus [2]; [7]): 0 /100WBC; PLATELET COUNT (Rattus norvegicus [2]; [7]): 1108.33 x10E3/uL; ALANINE AMINOTRANSFERASE (Rattus norvegicus [2]; [8]): 56.83 u/L; ALKALINE PHOSPHATASE (Rattus norvegicus [2]; [8]): 354.33 u/L; ASPARTATE AMINOTRANSFERASE (Rattus norvegicus [2]; [8]): 93.33 u/L; BLOOD UREA NITROGEN (Rattus norvegicus [2]; [8]): 16.67 mg/dL; CARBON DIOXIDE (Rattus norvegicus [2]; [8]): 27.83 mmol/L; CHOLESTEROL (Rattus norvegicus [2]; [8]): 62.33 mg/dL; CREATININE (Rattus norvegicus [2]; [8]): 0.2 mg/dL; GLUCOSE (Rattus norvegicus [2]; [8]): 137 mg/dL; LACTATE DEHYDROGENASE (Rattus norvegicus [2]; [8]): 407 u/L; LIPASE (Rattus norvegicus [2]; [8]): 10.83 u/L; PHOSPHORUS (Rattus norvegicus [2]; [8]): 11.45 mg/dL; POTASSIUM (Rattus norvegicus [2]; [8]): 6.51 MEQ/L; SODIUM (Rattus norvegicus [2]; [8]): 145.57 MEQ/L; TOTAL BILIRUBIN (Rattus norvegicus [2]; [8]): 0.2 mg/dL; TOTAL PROTEIN (Rattus norvegicus [2]; [8]): 6.3 G/DL; ABSOLUTE BASOPHIL (Rattus norvegicus [2]; [9]): 0 CELLS/uL; ABSOLUTE EOSINOPHIL (Rattus norvegicus [2]; [9]): 269 CELLS/uL; ABSOLUTE LYMPHOCYTE (Rattus norvegicus [2]; [9]): 14982 CELLS/uL; ABSOLUTE MONOCYTE (Rattus norvegicus [2]; [9]): 560.2 CELLS/uL; ABSOLUTE SEGMENTED NEUTROPHIL (Rattus norvegicus [2]; [9]): 2068.8 CELLS/uL; BASOPHIL (Rattus norvegicus [2]; [9]): 0%; EOSINOPHIL (Rattus norvegicus [2]; [9]): 1.6%; ERYTHROCYTE COUNT (Rattus norvegicus [2]; [9]): 6.64 x10E6/uL; HEMATOCRIT (Rattus norvegicus [2]; [9]): 37.88%; LEUKOCYTE COUNT (Rattus norvegicus [2]; [9]): 17.88 x10E3/uL; LYMPHOCYTE (Rattus norvegicus [2]; [9]): 83.6%; MEAN CORPUSCULAR HEMOGLOBIN (Rattus norvegicus [2]; [9]): 20.94 pg; MEAN CORPUSCULAR HEMOGLOBIN CONCENTRATION (Rattus norvegicus [2]; [9]): 36.7 G/DL; MEAN CORPUSCULAR VOLUME (Rattus norvegicus [2]; [9]): 57.06 fL; MONOCYTE (Rattus norvegicus [2]; [9]): 3.2%; NEUTROPHIL (Rattus norvegicus [2]; [9]): 11.6%; NUCLEATED RED BLOOD CELLS (Rattus norvegicus [2]; [9]): 0 /100WBC; PLATELET COUNT (Rattus norvegicus [2]; [9]): 1034.6 x10E3/uL; ALANINE AMINOTRANSFERASE (Rattus norvegicus [2]; [10]): 59.6 u/L; ALKALINE PHOSPHATASE (Rattus norvegicus [2]; [10]): 375 u/L; ASPARTATE AMINOTRANSFERASE (Rattus norvegicus [2]; [10]): 95.2 u/L; BLOOD UREA NITROGEN (Rattus norvegicus [2]; [10]): 17 mg/dL; CARBON DIOXIDE (Rattus norvegicus [2]; [10]): 23.4 mmol/L; CHOLESTEROL (Rattus norvegicus [2]; [10]): 68 mg/dL; CREATININE (Rattus norvegicus [2]; [10]): 0.22 mg/dL; GLUCOSE (Rattus norvegicus [2]; [10]): 151.4 mg/dL; LACTATE DEHYDROGENASE (Rattus norvegicus [2]; [10]): 417.8 u/L; LIPASE (Rattus norvegicus [2]; [10]): 10.2 u/L; PHOSPHORUS (Rattus norvegicus [2]; [10]): 11.36 mg/dL; POTASSIUM (Rattus norvegicus [2]; [10]): 6.37 MEQ/L; SODIUM (Rattus norvegicus [2]; [10]): 147.12 MEQ/L; TOTAL BILIRUBIN (Rattus norvegicus [2]; [10]): 0.18 mg/dL; TOTAL PROTEIN (Rattus norvegicus [2]; [10]): 6.74 G/DL; URIC ACID (Rattus norvegicus [2]; [10]): 2.42 mg/dL
